# Source: patent US11459339B2, “Biaryl derivative, preparation method thereof and pharmaceutical application thereof” (Abbisko Therapeutics Co., Ltd., priority 2018, dated 2022)
# Assays:
# [1] = molecular target: interaction between PD-1 and PD-L1 (Homo sapiens (Human), UniProt Q9NZQ7); experiment: PD1-PDL1 HTRF binding activity test (Cisbio PD-1/PD-L1 binding assay kit); settings: read-out: PD1-PDL1 HTRF Binding Activity IC50
# Procedure: A. PD1-PDL1 HTRF Binding Activity Test
# The effect of compounds and positive compounds of the examples of the present invention on the interaction between PD-1 and PD-L1 was determined by the PD-1/PD-L1 binding assay kit from Cisbio (#64ICP01PEG or 64ICP01PEH). The detailed experimental process was as follows:
# 1. Pre-diluted compound solution, 4 μL of Tag1-PD-L1 and 4 μL of Tag2-PD1 were added to each well of a 384-well plate;
# 3. After incubated for 2 hrs at room temperature or overnight at 4° C., plates were read on Envision of Pelkin Elmer; and readings at 665 nm and 620 nm were recorded, and the ratio of the two readings was taken as a reading for each well;
# 4. The reading of each well after compound treatment was compared with the reading of DMSO treated wells to obtain the percent inhibition of the compound; and
# 5. IC50 values of compounds and positive compounds of the examples of the present invention were determined by non-linear regression analysis of percent inhibition at different compound concentrations.
# [2] = molecular target: interaction between PD-1 and PD-L1 expressed on cell surfaces (Homo sapiens (Human), UniProt Q9NZQ7); experiment: Jurkat reporter gene cellular assay (Jurkat/NF-κB-luc/PD1 cells cocultured with Raji-PD-L1 cells, OKT-3 stimulation); format: cell-based; settings: NF-κB-luc reporter activation fold, 6 hrs; read-out: Cell Activity EC50
# Procedure: B. Jurkat Reporter Gene Cellular Assay
# The effect of compounds of the examples of the present invention and positive compounds on the interaction between PD-1 and PD-L1 expressed on cell surfaces, and the related influence on T cell functions, were determined by a Jurkat reporter gene cellular assay.
# Briefly, the reporter gene plasmid of NF-κB-luc and the plasmid of human PD-1 were transfected into Jurkat cells to establish a stably transfected cell line capable of stably expressing both PD-1 and NF-κB-Luc reporter genes; the expression level of PD-1 on the cell surface was confirmed by flow cytometry: and the expression of the reporter gene was confirmed via the response of the reporter gene stimulated by OKT-3 and Raiji cells.
# In addition, the plasmid of human PD-L1 was transfected into Raji cells to obtain a cell line capable of stably expressing PD-L1. Jurkat/NF-κB-luc/PD1 cells and Raji-PD-L1 cells were then cocultured and stimulated with OKT-3. On this basis, the compounds were added, and the enhancement of the signal pathway of T cell activation by the inhibitory effect of the compounds on the interaction between PD-1 and PD-L1 was evaluated by readings of reporter gene responses. The specific experimental process was as follows:
# 2. 20 μL of Raji-PD-L1 cell suspension was added to each well with 5*10^4 cells for each well, and was incubated in an incubator for 20 min;
# 3. 20 μL of Jurkat/NF-κb-luc/PD-1 cell suspension was added to each well with 5*10^4 cells for each well, and well mixed, and 6 hrs later, Bright-glo (Promega, E2620) was applied and plates were read on Envision;
# 4. the reading of each well treated with the compound was compared with the reading of each well treated with DMSO to obtain the activation fold of the compound; and
# 5. EC50 values of compounds and positive compounds of the examples of the present invention were determined by non-linear regression analysis of activation folds at different compound concentrations.
# Chain of interaction between PD-1 and PD-L1 expressed on cell surfaces (Q9NZQ7 19-290): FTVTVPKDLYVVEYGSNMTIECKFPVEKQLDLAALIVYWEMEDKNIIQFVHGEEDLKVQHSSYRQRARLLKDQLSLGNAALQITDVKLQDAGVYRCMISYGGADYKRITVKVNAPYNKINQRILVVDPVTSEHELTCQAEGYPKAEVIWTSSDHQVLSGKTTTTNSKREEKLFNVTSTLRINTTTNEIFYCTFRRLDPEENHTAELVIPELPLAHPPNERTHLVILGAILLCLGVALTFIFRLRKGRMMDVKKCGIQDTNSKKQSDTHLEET
# Chain of interaction between PD-1 and PD-L1 (Q9NZQ7 19-238): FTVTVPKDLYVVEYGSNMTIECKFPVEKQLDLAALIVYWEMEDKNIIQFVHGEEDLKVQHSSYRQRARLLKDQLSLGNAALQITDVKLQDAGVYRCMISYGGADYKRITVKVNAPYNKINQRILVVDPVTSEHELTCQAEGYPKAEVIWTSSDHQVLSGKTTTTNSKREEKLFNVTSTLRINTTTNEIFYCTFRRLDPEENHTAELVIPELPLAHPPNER
Structure (SMILES),IC50 [1],EC50 [2]
"COc1cc(C(=O)Nc2cccc(-c3cccc(NC(=O)c4cc(OC)c(CN[C@H](CO)C(=O)O)cn4)c3C)c2C)ncc1CN[C@H](CO)C(=O)O [Example 2, (2R,2′R)-2,2′-((((((2,2′-dimethyl-[1,1′-biphenyl]-3,3′-diyl)bis (azanediyl))bis(carbonyl))bis(4-methoxypyridine-6,3-diyl))bis(methylene))bis (azanediyl))bis(3-hydroxypropanoic acid)]",0.18 nM,109 nM
"Cc1c(NC(=O)c2ccc(CN[C@H](CO)C(=O)O)cn2)cccc1-c1cccc(NC(=O)c2ccc(CN[C@H](CO)C(=O)O)cn2)c1C [Example 6, (2R,2′R)-2,2′-((((((2,2′-dimethyl[1,1′-biphenyl]-3,3′-diyl)bis(azanediyl))bis(carbonyl))bis(pyridine-6,3-diyl))bis(methylene))bis(azanediyl))bis (3-hydroxypropanoic acid)]",0.79 nM,658 nM
"Cc1cc(C(=O)Nc2cccc(-c3cccc(NC(=O)c4cc(C)c(CN5CC[C@@H](O)C5)cn4)c3C)c2C)ncc1CN1CC[C@@H](O)C1 [Example 13, N,N′-(2,2′-dimethyl-[1,1′-biphenyl]-3,3′-diyl)bis(5-(((R)-3-hydroxypyrrolidin-1-yl)methyl)-4-methylpicolinamide)]",0.13 nM,109 nM
"Cc1cc(C(=O)Nc2cccc(-c3cccc(NC(=O)c4cc(C)c(CNC5CC5)cn4)c3C)c2C)ncc1CNC1CC1 [Example 15, N,N′-(2,2′-dimethyl-[1,1′-biphenyl]-3,3′-diyl)bis(5-((cyclopropylamino)methyl)-4-methyipicolinamide)]",0.83 nM,511 nM
"Cc1cc(C(=O)Nc2cccc(-c3cccc(NC(=O)c4cc(C)c(CN5CCNC(=O)C5)cn4)c3C)c2C)ncc1CN1CCNC(=O)C1 [Example 17, N,N′-(2,2′-dimethyl-[1,1′-biphenyl]-3,3′-diyl)bis(4-methyl-5-((3-oxopiperazin-1-yl)methyl)picolinamide)]",1.5 nM,> 10000 nM
"Cc1cc(C(=O)Nc2cccc(-c3cccc(NC(=O)c4cc(C)c(CN[C@@H]5CCOC[C@H]5O)cn4)c3C)c2C)ncc1CN[C@@H]1CCOC[C@H]1O [Example 18, N,N′-(2,2′-dimethyl-[1,1′-biphenyl]-3,3′-diyl)bis(5-((((3S,4R)-3-hydroxytetrahydro-2H-pyran-4-yl)amino)methyl)-4-methylpicolinamide)]",0.34 nM,209 nM
"Cc1cc(C(=O)Nc2cccc(-c3cccc(NC(=O)c4cc(C)c(CN[C@@H](CO)C(=O)O)cn4)c3C)c2C)ncc1CN[C@@H](CO)C(=O)O [Example 23, (2S,2′S)-2,2′-((((((2,2′-dimethyl-[1,1′-biphenyl]3,3′-diyl)bis(azanediyl))bis(carbonyl))bis(4-methylpyridine-6,3-diyl))bis(methylene))bis(azanediyl))bis (3-hydroxypropanoic acid)]",0.31 nM,249 nM
"COC(=O)CNCc1cnc(C(=O)Nc2cccc(-c3cccc(NC(=O)c4cc(C)c(CNCC(=O)OC)cn4)c3C)c2C)cc1C [Example 24, dimethyl 2,2′-((((((2,2′-dimethyl-[1,1′-biphenyl]-3,3′-diyl)bis(azanediyl))bis(carbonyl))bis(4-methylpyridine-6,3-diyl))bis (methylene))bis(azanediyl))diacetate]",3.2 nM,1050 nM
Cc1cc(C(=O)Nc2cccc(-c3cccc(NC(=O)c4cc(C)c(CNCC(=O)O)cn4)c3C)c2C)ncc1CNCC(=O)O [Example 25],0.37 nM,124 nM
COc1cc(C(=O)Nc2cccc(-c3cccc(NC(=O)c4cc(OC)c(CN5CC6(CCO6)C5)cn4)c3C)c2C)ncc1CN1CC2(CCO2)C1 [Example 57],0.36 nM,

# More lines, in order of falling IC50 [1], values ahead:
IC50 [1],EC50 [2],Structure (SMILES)
227 nM,,"Cc1cc(C(=O)Nc2cccc(-c3cccc(NC(=O)c4cc(C)c(CN5CCC(F)(F)C5)cn4)c3C)c2C)ncc1CN1CCC(F)(F)C1 [Example 14, N,N′-(2,2′-dimethyl-[1,1′-biphenyl]-3,3′-diyl)bis(5-((3,3-difluoropyrrolidin-1-yl)methyl)-4-methylpicolinamide)]"
3.8 nM,> 10000 nM,"Cc1cc(C(=O)Nc2cccc(-c3cccc(NC(=O)c4cc(C)c(CN5CCOCC5)cn4)c3C)c2C)ncc1CN1CCOCC1 [Example 9, N,N′-(2,2′-dimethyl-[1,1′-biphenyl]-3,3′-diyl)bis(4-methyl-5-(morpholinomethyl)picolinamide)]"
1.9 nM,594 nM,"Cc1cc(C(=O)Nc2cccc(-c3cccc(NC(=O)c4cc(C)c(CN5CCCC5)cn4)c3C)c2C)ncc1CN1CCCC1 [Example 12, N,N′-(2,2′-dimethyl-[1,1′-biphenyl]-3,3′-diyl)bis(4-methyl-5-(pyrrolidin-1-ylmethyl)picolinamide)]"
0.66 nM,83 nM,"Cc1cc(C(=O)Nc2cccc(-c3cccc(NC(=O)c4cc(C)c(CN[C@H](CO)C(=O)O)cn4)c3C)c2C)ncc1CN[C@H](CO)C(=O)O [Example 21, (2R,2′R)-2,2′-((((((2,2′-dimethyl-[1,1′-biphenyl]-3,3′-diyl)bis(azanediyl))bis(carbonyl))bis(4-methylpyridine-6,3-diyl))bis(methylene))bis(azanediyl)) bis(3-hydroxypropaitoic acid)]"
0.6 nM,134 nM,"Cc1cc(C(=O)Nc2cccc(-c3cccc(NC(=O)c4cc(C)c(CN5CC(C)(O)C5)cn4)c3C)c2C)ncc1CN1CC(C)(O)C1 [Example 11, N,N′-(2,2′-dimethyl-[1,1′-biphenyl]-3,3′-diyl)bis(5-((3-hydroxy-3-methylazetidin-1-yl)methyl)-4-methylpicolinamide)]"
0.36 nM,4220 nM,"COC(=O)[C@@H](CO)NCc1cnc(C(=O)Nc2cccc(-c3cccc(NC(=O)c4cc(C)c(CN[C@H](CO)C(=O)OC)cn4)c3C)c2C)cc1C [Example 20, dimethyl 2,2′-((((((2,2′-dimethyl-[1,1′-biphenyl]-3,3′-diyl)bis (azanediyl))bis(carbonyl))bis(4-methylpyridine-6,3-diyl))bis(methylene))bis(azanediyl))(2R,2′R)-bis(3-hydroxypropanoate)]"
0.28 nM,50 nM,"Cc1cc(C(=O)Nc2cccc(-c3cccc(NC(=O)c4cc(C)c(CNCC5(O)CC5)cn4)c3C)c2C)ncc1CNCC1(O)CC1 [Example 10, N,N′-(2,2′-dimethyl-[1,1′-biphenyl]-3,3′-diyl)bis(5-((((1-hydroxycyclopropyl)methyl)amino)methyl)-4-methylpicolinamide)]"
0.28 nM,5170 nM,"COC(=O)[C@H](CO)NCc1cnc(C(=O)Nc2cccc(-c3cccc(NC(=O)c4cc(C)c(CN[C@@H](CO)C(=O)OC)cn4)c3C)c2C)cc1C [Example 22, dimethyl 2,2′-((((((2,2′-dimethyl-[1,1′-biphenyl]-3,3′-diyl)bis(azanediyl))bis(carbonyl))bis(4-methylpyridine-6,3-diyl))bis(methylene))bis(azanediyl)) (2S,2′S)-bis(3-hydroxypropanoate)]"
0.15 nM,86 nM,"Cc1cc(C(=O)Nc2cccc(-c3cccc(NC(=O)c4cc(C)c(CN[C@H]5CC[C@H](O)CC5)cn4)c3C)c2C)ncc1CN[C@H]1CC[C@H](O)CC1 [Example 19, N,N′-(2,2′-dimethyl-[1,1′-biphenyl]-3,3′-diyl)bis(5-((((1r,4r)-4-hydroxycyclohexyl)amino)methyl)-4-methylpicolinamide)]"
0.14 nM,310 nM,"CC(=O)NCCNCc1cnc(C(=O)Nc2cccc(-c3cccc(NC(=O)c4cc(C)c(CNCCNC(C)=O)cn4)c3C)c2C)cc1C [Example 16, N,N′-(2,2′-dimethyl-[1,1′-biphenyl]-3,3′-diyl)bis(5-(((2-acetamidoethyl)amino)methyl)-4-methylpicolinamide)]"
0.096 nM,139 nM,"COCCNCc1cnc(C(=O)Nc2cccc(-c3cccc(NC(=O)c4cc(C)c(CNCCOC)cn4)c3C)c2C)cc1C [Example 7, N,N′-(2,2′-dimethyl-[1,1′-biphenyl]-3,3′-diyl)bis(5-(((2-methoxyethyl)amino)methyl)-4-methylpicolinamide)]"
